Experimental data reported in PubChem BioAssay AID248 (DTP/NCI, 2004).
“And” between values parts separate entries of the source, which are not always exact repeats. Equal values may be shown once. Toxic doses and inconclusive results are not listed. Cut-off read from the data, not from the text of the source: active = T/C of 150% or more; inactive = T/C below 125%.

Tested on: L1210 leukemia ip in BDF1 mice, survival T/C
Test: NCI In Vivo Anticancer Drug Screen. Data for tumor model L1210 Leukemia (intraperitoneal) in B6D2F1 (BDF1) mice
Settings: endpoint: mean survival time, higher = longer survival
How it was run: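 Value reflects the ratio of survival in compound-treated mice to survival in vehicle-treated controls, with both groups carrying the same transplanted tumor.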

[1] = dose: 100.0 mg/kg/injection, schedule: Q01DX001 (ip), vehicle: saline
[2] = dose: 200.0 mg/kg/injection, schedule: Q01DX001 (ip), vehicle: saline
[3] = dose: 400.0 mg/kg/injection, schedule: Q01DX001 (ip), vehicle: saline
[4] = dose: 100.0 mg/kg/injection, schedule: Q01DX009 (ip), vehicle: Klucel (hydroxypropylcellulose) (HPC)
[5] = dose: 200.0 mg/kg/injection, schedule: Q01DX009 (ip), vehicle: Klucel (hydroxypropylcellulose) (HPC)
[6] = dose: 400.0 mg/kg/injection, schedule: Q01DX009 (ip), vehicle: Klucel (hydroxypropylcellulose) (HPC)
[7] = dose: 100.0 mg/kg/injection, schedule: Q04DX003 (ip), vehicle: Klucel (hydroxypropylcellulose) (HPC)
[8] = dose: 200.0 mg/kg/injection, schedule: Q04DX003 (ip), vehicle: Klucel (hydroxypropylcellulose) (HPC)
[9] = dose: 400.0 mg/kg/injection, schedule: Q04DX003 (ip), vehicle: Klucel (hydroxypropylcellulose) (HPC)

Measured: T/C

S=P(NCCNP(=S)(N1CC1)N1CC1)(N1CC1)N1CC1
inactive: dose: 1.5 mg/kg/injection, schedule: Q01DX015 (ip), vehicle: saline 96 % of control | dose: 3.0 mg/kg/injection, schedule: Q01DX015 (ip), vehicle: saline 98 % of control | dose: 6.0 mg/kg/injection, schedule: Q01DX015 (ip), vehicle: saline 101 % of control | dose: 12.0 mg/kg/injection, schedule: Q01DX009 (ip), vehicle: carboxymethylcellulose (CMC) 104 % of control | dose: 12.0 mg/kg/injection, schedule: Q01DX015 (ip), vehicle: saline 102 % of control | dose: 12.5 mg/kg/injection, schedule: Q01DX009 (ip), vehicle: Klucel (hydroxypropylcellulose) (HPC) 108 % of control | dose: 12.5 mg/kg/injection, schedule: Q01DX009 (ip), vehicle: saline 112 % of control | dose: 25.0 mg/kg/injection, schedule: Q01DX009 (ip), vehicle: Klucel (hydroxypropylcellulose) (HPC) 120 % of control | dose: 25.0 mg/kg/injection, schedule: Q01DX009 (ip), vehicle: carboxymethylcellulose (CMC) 121 % of control | dose: 50.0 mg/kg/injection, schedule: Q01DX009 (ip), vehicle: Klucel (hydroxypropylcellulose) (HPC) 97 % of control | dose: 50.0 mg/kg/injection, schedule: Q01DX009 (ip), vehicle: carboxymethylcellulose (CMC) 115 % of control | [1] 106 % of control | dose: 100.0 mg/kg/injection, schedule: Q01DX009 (ip), vehicle: carboxymethylcellulose (CMC) 109 % of control | dose: 100.0 mg/kg/injection, schedule: Q01DX009 (ip), vehicle: saline 120 % of control | [2] 104 % of control | [3] 120 % of control

CCCCCCNC(=O)c1ccc(C(=O)NCCCCCC)cc1
inactive: [4] 94 % of control and 101 % of control | [5] 102 % of control | [6] 95 % of control and 90 % of control

CN(C)CCN(C)C(=O)C(O)(c1ccccc1)c1ccccc1
inactive: dose: 100.0 mg/kg/injection, schedule: Q04DX002 (ip), vehicle: saline with Tween-80 97 % of control | dose: 200.0 mg/kg/injection, schedule: Q04DX002 (ip), vehicle: saline with Tween-80 97 % of control | dose: 400.0 mg/kg/injection, schedule: Q04DX002 (ip), vehicle: saline with Tween-80 97 % of control

Clc1ccccc1C(N=Cc1ccc[nH]1)(c1ccccc1)c1ccccc1
inactive: [7] 90 % of control | [8] 93 % of control | [9] 93 % of control

COc1ccc(Br)c([N+](=O)[O-])c1
inactive: [1] 103 % of control | [2] 97 % of control | [3] 103 % of control

O=C(NCCO)C(=O)NCCO
inactive: dose: 100.0 mg/kg/injection, schedule: Q04DX002 (ip), vehicle: saline 115 % of control | dose: 200.0 mg/kg/injection, schedule: Q04DX002 (ip), vehicle: saline 110 % of control | dose: 400.0 mg/kg/injection, schedule: Q04DX002 (ip), vehicle: saline 96 % of control

CCOc1ccc(/C=C/c2ccc(OCC)cc2)cc1
inactive: [4] 90 % of control | [5] 90 % of control | [6] 93 % of control

CCCCCCC(=O)/C=C/c1ccc(Cl)c(Cl)c1
inactive: dose: 100.0 mg/kg/injection, schedule: Q01DX009 (ip), vehicle: acetone 92 % of control | dose: 100.0 mg/kg/injection, schedule: Q04DX003 (ip), vehicle: acetone 101 % of control | dose: 200.0 mg/kg/injection, schedule: Q01DX009 (ip), vehicle: acetone 92 % of control | dose: 200.0 mg/kg/injection, schedule: Q04DX003 (ip), vehicle: acetone 93 % of control | dose: 400.0 mg/kg/injection, schedule: Q04DX003 (ip), vehicle: acetone 98 % of control

COc1cc(C=Nc2ccc3c(c2)Cc2ccccc2-3)ccc1O
inactive: dose: 100.0 mg/kg/injection, schedule: Q04DX003 (ip), vehicle: saline sonified 94 % of control | dose: 200.0 mg/kg/injection, schedule: Q04DX003 (ip), vehicle: saline sonified 97 % of control | dose: 400.0 mg/kg/injection, schedule: Q04DX003 (ip), vehicle: saline sonified 95 % of control

O=c1oc(-c2ccccc2)ccc1-c1ccccc1
inactive: [7] 98 % of control | [8] 100 % of control | [9] 96 % of control
